Read-outs that look alike come from different tables or passages of the source.
Test system: adjuvant-induced arthritis in rats
Test: Established Adjuvant-Induced Arthritis in Rats (A.A.)
Assay type: in vivo, Charles River Lewis male rats
Conditions: for ED50: Rattus norvegicus, read-out: A.A. ED50 % (ED50% decrease from control paw volume)
[1] = oral, 7 daily doses, rats, determined as % paw volume reduction from control (uninjected, left hind paw)

Row | Compound | ED50 [1] [mg/kg] | further results
1 | CS(=O)(=O)n1c(SC(F)(F)C(F)F)nc(-c2ccccc2)c1-c1ccccc1 [Example 32] | ~21 | 
2 | C=CCn1c(S(=O)(=O)C(F)(F)C(F)F)nc(-c2ccc(F)cc2)c1-c1ccc(F)cc1 [Example 26] | 2 | 
3 | CCn1c(SC(F)(F)C(F)F)nc(-c2ccc(F)cc2)c1-c1ccc(F)cc1 [Example 20] | 3 | 
4 | O=S(=O)(c1nc(-c2ccccc2)c(-c2ccccc2)n1COCc1ccccc1)C(F)(F)C(F)F [Example 4, 1-Benzyloxymethyl-4,5-diphenyl-2-(1,1,2,2-tetrafluoroethylsulfonyl)imidazole] | 1.3 | 
5 | CC(C)Cc1ccc(C(C)C(=O)O)cc1 (stereo not drawn) [Ibuprofen, reference compound] | 100 | 
6 | CC(=O)n1c(SC(F)(F)C(F)F)nc(-c2ccccc2)c1-c1ccccc1 [Example 15, 1-Acetyl-4,5-diphenyl-2-(1,1,2,2-tetrafluoroethylthio)imidazole] | 0.9 | 
7 | O=C(OCc1ccccc1)n1c(SC(F)(F)C(F)F)nc(-c2ccccc2)c1-c1ccccc1 [Example 12, 1-Benzyloxycarbonyl-4,5-diphenyl-2-(1,1,2,2-tetrafluoroethylthio)imidazole] | < 25 | % paw volume reduction from control (@ 25 mg/Kg, oral, rats): 69%
8 | CN(C)C(=S)n1c(SC(F)(F)C(F)F)nc(-c2ccccc2)c1-c1ccccc1 [Example 9, 1-(N,N-Dimethylthiocarbamoyl)-4,5-diphenyl-2-(1,1,2,2-tetrafluoroethylthio)imidazole] | < 15 | % paw volume reduction from control (@ 15 mg/Kg, oral, rats): 53%
9 | CCCCn1c(S(=O)(=O)C(F)(F)C(F)F)nc(-c2ccc(F)cc2)c1-c1ccc(F)cc1 [Example 25] | 5 | 
10 | FC(F)(F)Sc1nc(-c2ccccc2)c(-c2ccccc2)n1COCc1ccccc1 [Example 1, 1-Benzyloxymethyl-4,5-diphenyl-2-trifluoromethylthioimidazole] | > 10 | % paw volume reduction from control (@ 10 mg/Kg, oral, rats): 34%
11 | CCOC(=O)n1c(SC(F)(F)C(F)F)nc(-c2ccc(F)cc2)c1-c1ccc(F)cc1 [Example 6, 1-Ethoxycarbonyl-4,5-bis(4-fluorophenyl)-2-(1,1,2,2-tetrafluoroethylthio)imidazole] | 0.15 | 
12 | COc1ccc(-c2nc(S(=O)(=O)C(F)(F)CF)n(C)c2-c2ccc(OC)cc2)cc1 [Example 31] | > 20 | % paw volume reduction from control (@ 20 mg/Kg, oral, rats): 36%
13 | CCn1c(S(=O)(=O)C(F)(F)C(F)F)nc(-c2ccc(F)cc2)c1-c1ccc(F)cc1 [Example 23] | 4.8 | 
14 | O=S(=O)(c1ccccc1)n1c(SC(F)(F)C(F)F)nc(-c2ccccc2)c1-c1ccccc1 [Example 14, 1-Benzenesulfonyl-4,5-diphenyl-2-(1,1,2,2-tetrafluoroethylthio)imidazole] | ~35 | 
15 | CC(C)(C)C(=O)OCn1c(S(=O)(=O)C(F)(F)C(F)F)nc(-c2ccc(F)cc2)c1-c1ccc(F)cc1 [Example 13, 4,5-bis(4-Fluorophenyl)-1-(pivaloyloxymethyl)-2-(1,1,2,2-tetrafluoroethylsulfonyl)imidazole] | 1.2 | 
16 | Cn1c(SC(F)(F)F)nc(-c2ccc(F)cc2)c1-c1ccc(F)cc1 [Example 28] | 2.1 | 
17 | O=S(=O)(c1ccccc1)n1c(SC(F)(F)F)nc(-c2ccc(F)cc2)c1-c1ccc(F)cc1 [Example 17, 1-Benzenesulfonyl-4,5-bis(4-fluorophenyl)-2-(trifluoromethylthio)imidazole] | 0.18 | 
18 | FC(F)(F)Sc1nc(-c2ccccc2)c(-c2ccccc2)n1C1CCCCO1 (stereo not drawn) [Example 5, 4,5-Diphenyl-1-(2-tetrahydropyranyl)-2-trifluoromethylthiomidazole] | 18 | 

Row | Compound | ED50 [1] [mg/kg] | further results
19 | CN(C)CCn1c(S(=O)(=O)C(F)(F)C(F)F)nc(-c2ccc(F)cc2)c1-c1ccc(F)cc1 [Example 27] | < 7 | % paw volume reduction from control (@ 7 mg/Kg, oral, rats): 76%
20 | Cn1c(SC(F)(F)C(F)F)nc(-c2ccc(F)cc2)c1-c1ccc(F)cc1 [Example 19] | 2.3 | 
21 | CC(C)n1c(SC(F)(F)C(F)F)nc(-c2ccc(F)cc2)c1-c1ccc(F)cc1 [Example 18, 4,5-bis(4-Fluorophenyl)-1-isopropyl-2-(1,1,2,2-tetrafluoroethylthio)imidazole] | 10 | 
22 | C=CCn1c(SC(F)(F)C(F)F)nc(-c2ccc(F)cc2)c1-c1ccc(F)cc1 [Example 22] | 1.3 | 
23 | CCOC(=O)n1c(SC(F)(F)C(F)F)nc(-c2ccccc2)c1-c1ccccc1 [Example 3, 4,5-Diphenyl-1-ethoxycarbonyl-2-(1,1,2,2-tetrafluoroethylthio)imidazole] | 2.3 | 
24 | CCCn1c(SC(F)(F)C(F)F)nc(-c2ccc(F)cc2)c1-c1ccc(F)cc1 [Example 21] | 14 | 
25 | CC(=O)Oc1ccccc1C(=O)O [Aspirin, reference compound] |  | ED50 (po): 305 mg/kg
26 | Cn1c(S(=O)(=O)C(F)(F)F)nc(-c2ccc(F)cc2)c1-c1ccc(F)cc1 [Example 29] | > 3 | % paw volume reduction from control (@ 3 mg/Kg, oral, rats): 33%
27 | CCCCC1C(=O)N(c2ccccc2)N(c2ccccc2)C1=O [Phenylbutazone, reference compound] | 10 | 
28 | COc1ccc2c(c1)c(CC(=O)O)c(C)n2C(=O)c1ccc(Cl)cc1 [Indomethacin, reference compound] |  | ED50 (po): 0.3 mg/kg
29 | CNC(=O)N(C)C(=O)n1c(SC(F)(F)C(F)F)nc(-c2ccccc2)c1-c1ccccc1 [Example 11, N-Methyl-N-(methylaminocarbonyl)-4,5-diphenyl-2-(1,1,2,2-tetrafluoroethylthio)imidazole-1-carboxamide] | 1.8 | 
30 | O=C(c1ccccc1)n1c(SC(F)(F)C(F)F)nc(-c2ccccc2)c1-c1ccccc1 [Example 34] | 2.3 | 
31 | Cn1c(S(=O)(=O)C(F)(F)C(F)F)nc(-c2ccc(F)cc2)c1-c1ccc(F)cc1 [Example 8, 4,5-bis(4-Fluorophenyl)-1-methyl-2-(1,1,2,2-tetrafluoroethylsulfonyl)imidazole] | 1 | 
32 | Mixture of 1-Ethoxycarbonyl-4-(4-fluorophenyl)-5-phenyl-2-(1,1,2,2-tetrafluoroethylthio)imidazole and 1-Ethoxycarbonyl-5-(4-fluorophenyl)-4-phenyl-2-(1,1,2,2-tetrafluoroethylthio)imidazole [Example 7] |  | A.A. ED50 % (ED50% decrease from control paw volume) [1]: 0.65 mg/kg
33 | CCCn1c(S(=O)(=O)C(F)(F)C(F)F)nc(-c2ccc(F)cc2)c1-c1ccc(F)cc1 [Example 24] | > 9 | % paw volume reduction from control (@ 9 mg/Kg, oral, rats): 33%
34 | FC(F)C(F)(F)Sc1nc(-c2ccccc2)c(-c2ccccc2)n1C1CCCO1 (stereo not drawn) [Example 16, 4,5-Diphenyl-2-(1,1,2,2-tetrafluoroethylthio)-1-(2-tetrahydrofuranyl)imidazole] | 2.7 | 
35 | FC(F)C(F)(F)Sc1nc(-c2ccccc2)c(-c2ccccc2)n1COCc1ccccc1 [Example 2, 1-Benzyloxymethyl-4,5-diphenyl-2-(1,1,2,2-tetrafluoroethylthio)imidazole] | 3.7 | 

Source: patent US4182769A, “Anti-inflammatory 1-substituted-4,5-diaryl-2-(substituted-thio) imidazoles and their corresponding sulfoxides and sulfones” (E. I. Du Pont de Nemours and Company, priority 1978, dated 1980)
